Tested on: Class I PI3-kinases
Assay: not given
Conditions: Fruman et al., 1998; read-out: IC50 against each of the various Class I PI3-kinases; cited from earlier work

Row | SMILES | IC50 [nM]
1 | COC[C@H]1OC(=O)c2coc3c2[C@@]1(C)C1=C(C3=O)[C@@H]2CCC(=O)[C@@]2(C)C[C@H]1OC(C)=O [wortmannin] | 1 to 10

Tested on: Akt/PKB phosphorylation in Raw 264-7 macrophages
Assay: Cell based ELISA to monitor PI3K inhibition (Akt/PKB phosphorylation after Complement 5a stimulation)
Conditions: Mus musculus, RAW264.7, read-out: Cell Assay (P-Akt, Elisa) IC50 [μM]
Protocol: b) Cell Based ELISA to Monitor PI3K Inhibition:
The efficacy of compounds of the invention in inhibiting the PI3K induced AKt/PKB phosphorylation may be tested in the following cell based assay.
Measurement of Akt/PKB phosphorylation in macrophages after stimulation with Complement 5a: Raw 264: Raw 264-7 macrophages (cultured in DMEM-F12 medium containing 10% Fetal Calf serum and antibiotics) are plated at 20'000 cells/well in a 96 MTP 24 h before cell stimulation. Previous to the stimulation with 50 nM of Complement 5a during 5 minutes, Cells are serum starved for 2 h, and pretreated with inhibitors for 20 minutes. After stimulation cells are fixed in 4% formaldehyde for 20 minutes and washed 3 times in PBS containing 1% Triton X-100 (PBS/Triton). Endogenous peroxidase is blocked by a 20 minutes incubation in 0.6% H2O2 and 0.1% Sodium Azide in PBS/Triton and washed 3 times in PBS/Triton. Cells are then blocked by 60 minutes incubation with 10% fetal calf serum in PBS/Triton. Next, phosphorylated AKt/PKB is detected by an overnight incubation at 4° C. with first antibody (anti phospho Serine 473 Akt IHC, Cell Signaling) diluted 800-fold in PBS/Triton, containing 5% bovine serum albumin (BSA). After 3 washes in PBS/Triton, cells are incubated for 60 minutes with a peroxidase conjugated goat-anti-rabbit antibody (1/400 dilution in PBS/Triton, containing 5% BSA), washed 3 times in PBS/Triton, and 2 times in PBS and further incubated in 100 μl of substrate reagent solution (R&D) for 20 minutes. The reaction is stopped by addition of 50 μl of 1 M SO4H2 and absorbance is read at 450 nm.
The values indicated in Table II below reflect the percentage of inhibition of AKT phoshorylation as compared to basal level. Said values show a clear effect of the thiazole compounds on the activation of AKT phosphorylation in macrophages.

Row | SMILES | IC50 [µM]
2 | CC(=O)Nc1nc(C)c(-c2csc(Nc3cccc(-c4nnc(O)o4)c3)n2)s1 [Example 53, N-(2-{[3-(5-hydroxy-1,3,4-oxadiazol-2-yl)phenyl]amino}-4′-methyl-4,5′-bi-1,3-thiazol-2′-yl)acetamide] | 1.51

Same assay, conditions: Mus musculus, RAW264.7; Raw 264-7 macrophages, 50 nM Complement 5a; read-out: Cell Assay (P-Akt, Elisa) IC50

Row | SMILES | IC50 [µM]
3 | CC(=O)Nc1nc(C)c(-c2csc(Nc3ccc(Cl)nc3)n2)s1 [Example 24, N-{2-[(6-chloropyridin-3-yl)amino]-4-methyl-4,5-bi-1,3-thiazol-2-yl}acetamide] | 0.66
4 | CC(=O)Nc1nc(C)c(-c2csc(NCCC(N)=O)n2)s1 [Example 84] | 1.84

Continued, values first:

Row | IC50 [µM] | SMILES
5 | 1.64 | CC(=O)Nc1nc(C)c(-c2csc(Nc3cccnc3)n2)s1 [Example 7, N-[4-methyl-2-(Pyridin-3-ylamino)-4,5-bi-1,3-thiazol-2-yl]acetamid]
6 | 3.18 | CC(=O)Nc1nc(C)c(-c2csc(Nc3cccc(C(=O)O)c3)n2)s1 [Example 1]

Molecular target: PI3Kγ (Homo sapiens (Human), UniProt P48736)
Sequence (P48736 whole entry): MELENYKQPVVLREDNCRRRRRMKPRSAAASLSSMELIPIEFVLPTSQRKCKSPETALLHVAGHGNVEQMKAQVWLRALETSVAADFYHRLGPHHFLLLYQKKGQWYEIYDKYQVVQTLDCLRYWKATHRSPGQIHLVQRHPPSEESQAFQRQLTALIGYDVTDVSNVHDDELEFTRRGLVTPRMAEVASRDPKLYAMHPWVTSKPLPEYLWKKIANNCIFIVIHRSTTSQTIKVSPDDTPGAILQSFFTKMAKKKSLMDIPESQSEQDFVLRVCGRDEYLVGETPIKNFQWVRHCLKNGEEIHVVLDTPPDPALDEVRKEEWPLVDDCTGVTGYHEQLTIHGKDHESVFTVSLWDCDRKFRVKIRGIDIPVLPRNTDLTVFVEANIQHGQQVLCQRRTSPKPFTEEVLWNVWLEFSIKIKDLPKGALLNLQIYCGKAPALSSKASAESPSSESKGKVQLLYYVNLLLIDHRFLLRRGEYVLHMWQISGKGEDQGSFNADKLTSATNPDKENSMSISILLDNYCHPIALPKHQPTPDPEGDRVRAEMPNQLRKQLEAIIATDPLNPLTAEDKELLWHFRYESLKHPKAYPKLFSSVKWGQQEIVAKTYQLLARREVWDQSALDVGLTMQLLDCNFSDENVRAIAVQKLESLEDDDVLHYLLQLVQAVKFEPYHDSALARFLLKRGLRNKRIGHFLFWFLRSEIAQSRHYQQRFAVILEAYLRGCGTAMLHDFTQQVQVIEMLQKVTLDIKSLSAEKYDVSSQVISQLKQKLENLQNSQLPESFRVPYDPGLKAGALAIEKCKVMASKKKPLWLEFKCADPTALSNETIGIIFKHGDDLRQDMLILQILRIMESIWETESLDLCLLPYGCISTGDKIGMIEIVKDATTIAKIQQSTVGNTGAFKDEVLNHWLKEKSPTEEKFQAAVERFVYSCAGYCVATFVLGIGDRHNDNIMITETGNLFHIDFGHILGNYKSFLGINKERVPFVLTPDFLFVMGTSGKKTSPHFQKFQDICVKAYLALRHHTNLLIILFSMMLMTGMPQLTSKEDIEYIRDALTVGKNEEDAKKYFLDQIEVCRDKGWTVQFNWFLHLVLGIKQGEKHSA
Assay: High Throughput PI3K Lipid Kinase Assay (scintillation proximity assay)
Format: biochemical
Conditions: Human recombinant GST-PI3Kγ, SPA
Excerpt: a) High Throughput PI3K Lipid Kinase Assay (Binding Assay): The efficacy of compounds of the invention in inhibiting the PI3K induced-lipid phosphorylation may be tested in the following binding assay. The assay combines the scintillation proximity assay technology (SPA, Amersham) with the capacity of neomycin (a polycationic antibiotic) to bind phospholipids with high affinity and specificity. The Scintillation Proximity Assay is based on the properties of weakly emitting isotopes (such as ^3H, ^125I, ^33P). Coating SPA beads with neomycin allows the detection of phosphorylated lipid substrates after incubation with recombinant PI3K and radioactive ATP in the same well, by capturing the radioactive phospholipids to the SPA beads through their specific binding to neomycin. […] After incubation at room temperature for 180 minutes, with gentle agitation, the reaction is stopped by addition of 60 μl of a solution containing 100 μg of neomycin-coated PVT SPA beads in PBS containing ATP 10 mM and EDTA 5 mM. The assay is further incubated at room temperature for 60 minutes with gentle agitation to allow binding of phospholipids to neomycin-SPA beads. After precipitation of the neomycin-coated PVT SPA beads for 5 minutes at 1500×g, radioactive PtdIns(3)P is quantified by scintillation counting in a Wallac MicroBetaTM plate counter. The values indicated in Table I below refer to the IC50 (nM) with respect to PI3Kγ, i.e. the amount necessary to achieve 50% inhibition of said target. Said values show a considerable inhibitory potency of thiazole compounds with regard to PI3Kγ.

Row | SMILES | IC50 [nM]
7 | CC(=O)Nc1nc(C)c(-c2csc(NCCc3nnc(O)o3)n2)s1 [Example 56, 5-(2-{[2′-(acetylamino)-4′-methyl-4,5′-bi-1,3-thiazol-2-yl]amino}ethyl)-1,3,4-oxadiazol-2-olate] | 377
8 | CCOC(CCNc1nc(-c2sc(NC(C)=O)nc2C)cs1)OCC [Example 45, N-{2-[(3,3-diethoxypropyl)amino]-4′-methyl-4,5′-bi-1,3-thiazol-2′-yl}acetamide] | 612
9 | CC(=O)Nc1nc(C)c(-c2csc(NCC(O)c3ccccc3)n2)s1 (centres unmarked) [Example 37, N-{2-[(2-hydroxy-2-phenylethyl)amino]-4-methyl-4,5-bi-1,3-thiazol-2-yl}acetamide] | 70
10 | CC(=O)NCCNc1nc(-c2sc(NC(C)=O)nc2C)cs1 [Example 77, N-(2-{[2-(acetylamino)ethyl]amino}-4′-methyl-4,5′-bi-1,3-thiazol-2′-yl)acetamide] | 189
11 | CC(=O)Nc1nc(C)c(-c2csc(NCCN3CCOCC3)n2)s1 [Example 31, N-{4-methyl-2-[(2-morpholin-4-ylethyl)amino]-4,5-bi-1,3-thiazol-2-yl}acetamide] | 871
12 | CC(=O)Nc1nc(C)c(-c2csc(Nc3cccnc3F)n2)s1 [Example 43, N-{2-[(2-fluoropyridin-3-yl)amino]-4′-methyl-4,5′-bi-1,3-thiazol-2′-yl}acetamide] | 38

Now from value to molecule:

Row | IC50 [nM] | SMILES
13 | 314 | CC(=O)Nc1nc(C)c(-c2csc(NC(C)(C)C)n2)s1 [Example 22, N-[2-(tert-butylamino)-4-methyl-4,5-bi-1,3-thiazol-2-yl]acetamide]
14 | 94 | CC(=O)Nc1nc(C)c(-c2csc(Nc3cccnc3)n2)s1 [Example 7, N-[4-methyl-2-(Pyridin-3-ylamino)-4,5-bi-1,3-thiazol-2-yl]acetamid]
15 | 355 | COCCNc1nc(-c2sc(NC(C)=O)nc2C)cs1 [Example 33, N-{2-[(2-methoxyethyl)amino]-4-methyl-4,5-bi-1,3-thiazol-2-yl}acetamide]
16 | 844 | CC(=O)Nc1nc(C)c(-c2csc(N3CCOCC3)n2)s1 [Example 16, N-(4-methyl-2-morpholin-4-yl-4,5-bi-1,3-thiazol-2-yl)acetamide]
17 | 575 | CC(=O)Nc1nc(C)c(-c2csc(N)n2)s1 [Example 14, N-(2-amino-4-methyl-4,5-bi-1,3-thiazol-2-yl)acetamide]
18 | 630 | CC(=O)Nc1nc(C)c(-c2csc(N3CCCCC3)n2)s1 [Example 5, N-(4-methyl-2-piperidin-1-yl-4,5-bi-1,3-thiazol-2-yl)acetamide]
19 | 202 | C=CCNc1nc(-c2sc(NC(C)=O)nc2C)cs1 [Example 6, N-[2-(allylamino)-4-methyl-4,5-bi-1,3-thiazol-2-yl]acetamide]
20 | 64 | CC(=O)Nc1nc(C)c(-c2csc(Nc3cccc(CCC(=O)O)c3)n2)s1 [Example 136, 3-(3-{[2′-(acetylamino)-4′-methyl-4,5′-bi-1,3-thiazol-2-yl]amino}phenyl) propanoic acid]
